Values of other authors as cited in patent US20080103124A1, “Cefdinir-containing pharmaceutical composition” (ASTELLAS PHARMA INC., priority 2006, published 2008).
Like-named read-outs stand apart in the source and are kept apart here.

Conditions: human beings

absolute bioavailability (following administration of a 300 mg capsule): 21%
absolute bioavailability (following administration of an oral suspension of 250 mg/5 mL): 25%
Compound: C=CC1=C(C(=O)O)N2C(=O)[C@@H](NC(=O)/C(=N\O)c3csc(N)n3)[C@H]2SC1 [cefdinir]
